Data reported in patent US12673933B2, “Aminopyrazine compounds as HPK1 inhibitor and the use thereof” (BEIGENE, LTD., priority 2019, dated 2026).

These compounds were tested against T1, HPK1 kinase (aa1-346, Life Technologies) (Homo sapiens, UniProt Q92918) (assay: HPK Kinase Activity Assay at 1 mM ATP (TR-FRET)). Conditions: HPK1 kinase 40 nM, 0.5 μM STK1 substrate, read-out: Enzymatic activity IC50.
T1 construct: HPK1 kinase (aa1-346, Life Technologies); purchased Life Technologies
T1 sequence (Q92918 1-346): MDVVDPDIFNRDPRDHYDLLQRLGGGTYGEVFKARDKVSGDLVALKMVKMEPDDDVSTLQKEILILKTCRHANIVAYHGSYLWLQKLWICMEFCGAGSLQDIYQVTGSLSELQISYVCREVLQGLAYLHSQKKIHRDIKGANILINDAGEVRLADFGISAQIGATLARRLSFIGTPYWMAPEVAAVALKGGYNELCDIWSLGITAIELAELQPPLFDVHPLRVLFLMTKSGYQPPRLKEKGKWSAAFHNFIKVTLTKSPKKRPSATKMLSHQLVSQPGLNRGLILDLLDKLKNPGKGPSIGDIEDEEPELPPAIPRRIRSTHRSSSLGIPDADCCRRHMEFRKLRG
Format: biochemical
Outline: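 HPK1 (aa1-346, 40 nM) was preincubated 60 min at room temperature with compound (0–10 μM) in pH 7.0 HEPES/MgCl2 buffer. Reaction ran 120 min at room temperature with 1 mM ATP and 0.5 μM STK1 substrate. Phosphorylation was read as the TR-FRET 665/620 nm ratio, with IC50 from a four-parameter logistic fit.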

Question: Which IC50 does the source give for `CC(=O)Nc1cc(COc2nc(-c3cc(C)c4c(c3)CN(C)CC4)cnc2N)ccn1` [Example 39, N-(4-(((3-amino-6-(2,5-dimethyl-1,2,3,4-tetrahydroisoquinolin-7-yl)pyrazin-2-yl)oxy)methyl)pyridin-2-yl)acetamide] here?
Answer: 85 nM

Question: For `Cc1cc(-c2cnc(N)c(Oc3cnn(C(C)C)c3)n2)cc2c1CCN(C)C2` [Example 272, 5-(2,5-dimethyl-1,2,3,4-tetrahydroisoquinolin-7-yl)-3-(1-isopropyl-1H-pyrazol-4-yloxy)pyrazin-2-amine], which IC50 is on record?
Answer: 8.4 nM

Question: `Cc1cc(-c2cnc(N)c(OCc3ccnc(N)c3OC3CCOCC3)n2)cc2c1CCN(C)C2` [Example 249, 3-((2-amino-3-((tetrahydro-2H-pyran-4-yl)oxy)pyridin-4-yl)methoxy)-5-(2,5-dimethyl-1,2,3,4-tetrahydroisoquinolin-7-yl)pyrazin-2-amine] was tested. Which IC50 did it give?
Answer: 8 nM

Question: Which IC50 does the source give for `Cc1cc(-c2cnc(N)c(OCc3cccnc3)n2)cc2c1CCN(C)C2` [Example 15, 5-(2,5-dimethyl-1,2,3,4-tetrahydroisoquinolin-7-yl)-3-(pyridin-3-ylmethoxy)pyrazin-2-amine] here?
Answer: 157 nM

Question: With `Cc1cc(-c2cnc(N)c(Oc3cnn(CC(C)(C)C#N)c3)n2)cc2c1CN(C)CC2` [Example 318, 3-(4-(3-amino-6-(2,8-dimethyl-1,2,3,4-tetrahydroisoquinolin-6-yl)pyrazin-2-yloxy)-1H-pyrazol-1-yl)-2,2-dimethylpropanenitrile] as the compound, how does the IC50 read?
Answer: 60 nM

Question: `CC#Cc1cc(COc2nc(-c3cc(C)c4c(c3)CN(C)CC4)cnc2N)ccn1` [Example 25, 5-(2,5-dimethyl-1,2,3,4-tetrahydroisoquinolin-7-yl)-3-((2-(prop-1-ynyl)pyridin-4-yl)methoxy)pyrazin-2-amine] was tested. Which IC50 did it give?
Answer: 13 nM

Question: `CNc1cc(-c2cnc(N)c(OCc3ccncc3OC)n2)cc2c1CCN(C)C2` [Example 205, 7-(5-amino-6-((3-methoxypyridin-4-yl)methoxy)pyrazin-2-yl)-N,2-dimethyl-1,2,3,4-tetrahydroisoquinolin-5-amine] was tested. Which IC50 did it give?
Answer: 12 nM

Question: Which IC50 does the source give for `Cc1cc(-c2cnc(N)c(OCc3ccnc(N)c3Cl)n2)cc2c1CCN(C)C2` [Example 152, 3-((2-amino-3-chloropyridin-4-yl)methoxy)-5-(2,5-dimethyl-1,2,3,4-tetrahydroisoquinolin-7-yl)pyrazin-2-amine] here?
Answer: 21 nM

Question: For `CN1CCc2c(cc(-c3cnc(N)c(OCc4ccnc(N)c4)n3)cc2C(F)(F)F)C1` [Example 271, 3-((2-aminopyridin-4-yl)methoxy)-5-(2-methyl-5-(trifluoromethyl)-1,2,3,4-tetrahydroisoquinolin-7-yl)pyrazin-2-amine], which IC50 is on record?
Answer: 11 nM

Question: How did the IC50 turn out when `Cc1cc(-c2cnc(N)c(Oc3cnn(C4CCN(C)C4)c3)n2)cc2c1CCN(C)C2` (single isomer, unassigned) [Example 280A] was run?
Answer: 12 nM

Question: `CC#Cc1nn(-c2nc(-c3cc(C)c4c(c3)CN(C)CC4)cnc2N)cc1C(=O)N(C)C` [Example 319, 1-(3-amino-6-(2,5-dimethyl-1,2,3,4-tetrahydroisoquinolin-7-yl)pyrazin-2-yl)-N,N-dimethyl-3-(prop-1-ynyl)-1H-pyrazole-4-carboxamide] was tested. Which IC50 did it give?
Answer: 18 nM

Question: How did the IC50 turn out when `COCCn1cc(Oc2nc(-c3cc(C)c4c(c3)CN(C)CC4)cnc2N)cn1` [Example 276, 5-(2,5-dimethyl-1,2,3,4-tetrahydroisoquinolin-7-yl)-3-((1-(2-methoxyethyl)-1H-pyrazol-4-yl)oxy)pyrazin-2-amine] was run?
Answer: 24 nM

Question: Which IC50 does the source give for `Cc1cc(-c2cnc(N)c(OCc3ccnc(C#Cc4ccc(F)cc4)c3)n2)cc2c1CCN(C)C2` [Example 20, 5-(2,5-dimethyl-1,2,3,4-tetrahydroisoquinolin-7-yl)-3-((2-((4-fluorophenyl)ethynyl)pyridin-4-yl)methoxy)pyrazin-2-amine] here?
Answer: 151 nM

Question: For `Cc1cc(-c2cnc(N)c(-n3cc(C(=O)N(C)CC4CCOC4)cn3)n2)cc2c1CCN(C)C2` (centres unmarked) [Example 304, 1-(3-amino-6-(2,5-dimethyl-1,2,3,4-tetrahydroisoquinolin-7-yl)pyrazin-2-yl)-N-methyl-N-((tetrahydrofuran-3-yl)methyl)-1H-pyrazole-4-carboxamide], which IC50 is on record?
Answer: 10 nM
